According to patent publication US10316056B2, “Chemical compounds and use thereof for improving muscular quality” (BIOPHYTIS, priority 2014, dated 2019):
Read-outs that look alike come from different tables or passages of the source.

What was measured:
[1] = test system: S6 kinase (S6K1) phosphorylation in C2C12 cells; experiment: Phosphorylation of the S6 kinase in C2C12 cells (ELISA pS6K T389), protein synthesis; format: cell-based, mouse; settings: C2C12, 2 h; for activity at 10 µM / activity: Mus musculus; for activity at 10 µM: read-out: Protein synthesis (percentage increase in S6K phosphorylation in muscle cells); for activity: read-out: S6K1 phosphorylation level
Protocol: After several experiments in which the C2C12 cells differentiated into myotubes were incubated in the presence of IGF-1 or 20E for 2 h 30 or 6 h, two screening tests were developed. Thus, the phosphorylation of the S6 protein kinase and the expression of the myostatin gene were studied in order to determine their modulation by a growth hormone or an ecdysone and to characterize these modulations from a statistical point of view.
The C2C12 myoblast cells (ATCC CRL-1772) are seeded into 6-well plates at a density of 170 000 cells per well and cultured in a DMEM medium containing glucose in a proportion of 4.5 g/l and supplemented with fetal calf serum (10%) and with antibiotics (penicillin and streptomycin). Forty-eight hours later, the myoblasts are induced to differentiate by partial serum depletion (2% instead of 10%) for 5 days. The cells are then placed in a medium which is glucose-depleted (DMEM containing 1 g/l of glucose) and serum-free in the presence of the test molecules or of the references (100 ng/ml IGF-1 or 10 μM 20E) for 2 h. At the end of the experiment, the cells are lysed in a commercial lysis buffer (Invitrogen FNN0011) supplemented with a commercial mixture of anti-proteases (Roche 05056489001). After centrifugation, the cytoplasmic fraction containing the soluble proteins is kept and the protein concentration is determined using a commercial kit (Biorad 500-0114), the principle of which is composed of assaying by the Lowry method. The assaying of the S6 kinase phosphorylation is carried out using a commercial ELISA (Enzyme Linked ImmunoSorbent Assay) kit (Cell signaling 7063). Briefly, 50 μg of protein lysate are deposited in the wells of a 96-well microplate and incubated overnight at 4° C. with the solution of antigen specific for the pS6 kinase threonine 389 antibody. The binding of the antigen to the bottom of the wells is done electrostatically. The solution of antibody to be assayed (pS6K T389) is then incubated at 37° C. in the wells for 2 hours. The antibodies bind specifically to the antigen. The wells are then washed with washing buffer in order to remove the antigen-specific primary antibodies to be assayed which are in excess. The third step consists in binding the detection antibody. The solution of detection antibodies is incubated at 37° C. in the wells for 1 hour. The wells are then washed in order to remove the excess detection antibodies. It should be noted that the detection antibodies are coupled to an enzyme which, in the presence of its substrate, converts it into a reaction product that can be detected and measured by virtue of the appearance of a coloration. […] The appearance of a blue coloration in the substrate indicates the presence of the antibody to be assayed. In order to prevent any saturation phenomenon, a stop solution (generally containing […]) is added and brings about a change in coloration, which goes from blue to yellow. The strength thereof is proportional to the amount of enzyme present and thus to the concentration of antibody sought. The strength of the signal is measured using spectrophotometry at a wavelength of 450 nm.

[2] = test system: Soleus muscle of C57BL/6 mice subjected to a high-fat diet; experiment: Mice subjected to a high-fat diet: weight and amount of proteins of the Soleus muscle; format: in vivo, C57BL/6J mice; settings: 5 mg/kg orally, high-fat diet for 6 weeks, compared with the control group
Protocol: (§1) The 20E as comparative compound and the compounds according to the invention (Nos. 51 and 93) were administered orally, at a dose of 5 mg/kg of body weight, to 12-week-old C57BL/6J mice subjected to a high-fat diet for 6 weeks. The effect of the compounds on the weight and the amount of proteins of the Soleus muscle and also the transcripts of genes involved in myogenesis were evaluated.
The amount of proteins is determined by first lysing the muscles sampled in a 0.1N NaOH solution with the FastPrep technique. The proteins are quantified by means of a colorimetric assay derived from the Lowry method.
(§2) The in vivo study is carried out by evaluating the effect of 20E as comparative compound and of the molecules according to the invention (Nos. 51 and 93) administered orally, at a dose of 5 mg/kg of body weight, to C57BL/6 mice subjected to a high-fat diet for 6 weeks. The effect of the molecules on the weight and the amount of proteins of the Soleus muscle and also the transcripts of genes involved in myogenesis were evaluated.

myostatin transcript = experiment: Mice subjected to a high-fat diet: myostatin transcript of the Soleus muscle; format: in vivo, C57BL/6J mice; settings: 5 mg/kg orally; high-fat diet for 6 weeks; FIG. 4
Protocol: as §1
In order to carry out the gene expression analysis, the muscle tissues were homogenized in a Trizol solution (500 μl), and the RNAs were extracted and purified using the phenol/chloroform method. An amount of […] of RNA was used as template for the synthesis of the first cDNA strand using oligo (dT)s as primers and the AMV reverse transcriptase enzyme as described by the supplier (Applied Biosystems 4368814). The q-PCRs were then carried out using a 7900HT machine equipped with a rapid system for real-time detection by PCR (Applied Biosystems) and the standard qPCR program (1 cycle of 95° C. for 15 min, 40 cycles of 95° C. for 15 s and 60° C. for 1 min, a 60-95° C. melt curve for the Sybergreen probes). The experiments are carried out in a Sybergreen SYBR master mix (Applied Biosystems) containing the 100 ng cDNA samples and a set of primers which bind to the two different exons and at a final concentration of 200 nM.
(§3) The relative differences in gene expression between treatments are expressed as increase or decrease in the number of cycle times [Ct] compared with the control group, the [Ct] value of each gene having been standardized with the beta-actin gene.
as §2

MyoD transcripts = experiment: Mice subjected to a high-fat diet: MyoD transcripts of the Soleus muscle; format: in vivo, C57BL/6J mice; settings: 5 mg/kg orally; high-fat diet for 6 weeks; FIG. 5A
Protocol: as §1
(§4) Myogenesis, which is the process for forming muscle tissues, is controlled by several myogenic transcription factors which act as end effectors of the signaling cascade and produce transcripts involved in the various stages of development. The roles of the transcription factors have been described in various journals (Sabourin and Rudnicki 2000 and Le Grand and Rudnicki 2007). The Pax7 protein (Paired-box protein 7) maintains a population of satellite cells in quiescence and, with Myf5 (Myogenic factor 5), plays a role in the expansion of activated myoblasts. The MyoD protein (Myoblast Determination protein) appears to determine the differentiation potential of activated myoblasts, and cooperates with myogenin and the MEF2 (Myocyte Enhancer Factor 2) protein to control and bring about differentiation. Finally, MRF4 (Muscle-specific Regulatory Factor 4) is required for hypertrophy, even though it probably plays other roles. […]
as §3, §2

Myf5 gene transcripts = experiment: Mice subjected to a high-fat diet: Myf5 transcripts; format: in vivo, C57BL/6J mice; settings: 5 mg/kg orally; high-fat diet for 6 weeks
Protocol: as §1, §4, §3, §2

myogenin transcripts = experiment: Mice subjected to a high-fat diet: myogenin transcripts of the Soleus muscle; format: in vivo, C57BL/6J mice; settings: 5 mg/kg orally; high-fat diet for 6 weeks; FIG. 5B
Protocol: as §1, §4, §3, §2

[3] = rat, in vivo, po
Protocol: (§5) The pharmacokinetics of the compounds were evaluated orally using male Wistar rats (Charles River). […] The novel compounds according to the invention were administered at a dose of 10 mg/kg of body weight in the form of a mixture of 4 to 6 products. After administration, the blood was sampled from the tail at t=0.25 h, 0.5 h, 1 h, 3 h, 6 h and 8 h. The blood samples were centrifuged and the plasmas removed.

[4] = test system: myostatin gene expression in C2C12 cells; experiment: Inhibition of myostatin expression in C2C12 cells (qPCR); format: cell-based; settings: Mus musculus, percentage myostatin gene expression in cells in contact with the compounds related to control cells, C2C12, 6 h
How it was run: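 C2C12 myoblasts differentiated to myotubes for 5 days in 2% serum, then treated 6 h with compounds in serum-free, low-glucose (1 g/l) DMEM; IGF-1 100 ng/ml as reference. Myostatin mRNA quantified by RT-qPCR, expressed relative to untreated control as R=2^-ΔΔCt.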

in vivo = settings: male, Wistar, rat, po, 10 mg/kg
Protocol: as §5

[5] = test compounds and 20E reference (10 μM)

For `CC(C)(O)CC[C@@H](O)[C@](C)(O)[C@H]1CC[C@@]2(O)C3=CC(=O)[C@@H]4C[C@@H](O)[C@@H](O)C[C@]4(C)[C@H]3CC[C@]12C` [Compound 20E, 20-hydroxyecdysone, reference compound], the S6K1 phosphorylation level [1, 5] was 120%, the “weight of the Soleus muscle” value ([2]; FIG. 3A) was “increases” and the “amount of proteins of the Soleus muscle” value ([2]; FIG. 3B) was “increases”. For the same molecule, the “myostatin expression in the Soleus muscle” value (myostatin transcript) was “comparably inhibit”, the “transcripts of the MyoD gene” value (MyoD transcripts) was “increase” and the “transcripts of the Myf5 gene” value (Myf5 gene transcripts) was “increase”. The “transcript of the myogenin gene” value (myogenin transcripts) was “increase”, the “Cexp (coefficient of exposure)” value [3] was 1.0 and the AUC ([3]; 50 mg/kg) was 382 ng·h/mL. It also gave a Cmax ([3]; 50 mg/kg) of 68 ng/mL and a Tmax ([3]; 50 mg/kg) of 30 min.
For `C[C@]12C[C@H](O)[C@H](O)C[C@H]1C(=O)C=C1C2CC[C@]2(C)[C@@H](C(=O)CN3CCC(CCO)CC3)CC[C@@]12O` (stereo partly drawn) [Compound 89, (2S,3R,5R,10R,13R,14S,17S)-2,3,14-trihydroxy-17-[2-[4-(2-hydroxyethyl)-1-piperidyl]acetyl]-10,13-dimethyl-2,3,4,5,9,11,12,15,16,17-decahydro-1H-cyclopenta[a]phenanthren-6-one], the mrna remaining at 10 µM [4] was < 70%, the activity at 10 µM [1] was > 130% and the activity [1, 5] was 130 to 140%.
`C[C@]12C[C@H](O)[C@H](O)C[C@H]1C(=O)C=C1C2CC[C@]2(C)[C@@H](C(=O)CN3CCC(O)CC3)CC[C@@]12O` (stereo partly drawn) [Compound 88, (2S,3R,5R,10R,13R,14S,17S)-2,3,14-trihydroxy-17-[2-(4-hydroxy-1-piperidyl)acetyl]-10,13-dimethyl-2,3,4,5,9,11,12,15,16,17-decahydro-1H-cyclopenta[a]phenanthren-6-one] gave a mrna remaining at 10 µM [4] of 71 to 85%, an activity at 10 µM [1] of 110 to 129% and an activity [1, 5] of ~120%.
With `CCN(CC)CCO/N=C(/C)[C@H]1CC[C@@]2(O)C3=CC(=O)[C@@H]4C[C@@H](O)[C@@H](O)C[C@]4(C)C3CC[C@]12C` (stereo partly drawn) [Compound 32, (2S,3R,5R,10R,13R,14S,17S)-17-(N-(2-diethylaminoethoxy)-C-methylcarbonimidoyl)-2,3,14-trihydroxy-10,13-dimethyl-2,3,4,5,9,11,12,15,16,17-decahydro-1H-cyclopenta[a]phenanthren-6-one] the mrna remaining at 10 µM [4] was < 70%, the activity at 10 µM [1] was 110 to 129% and the activity [1, 5] was ~120%.
For `CC(NCC1CCCO1)[C@H]1CC[C@@]2(O)C3=CC(=O)[C@@H]4C[C@@H](O)[C@@H](O)C[C@]4(C)C3CC[C@]12C` (stereo partly drawn) [Compound 46, (2S,3R,5R,10R,13R,14S,17S)-2,3,14-trihydroxy-10,13-dimethyl-17-[1-(tetrahydrofuran-2-ylmethylamino)ethyl]-2,3,4,5,9,11,12,15,16,17-decahydro-1H-cyclopenta[a]phenanthren-6-one], the mrna remaining at 10 µM [4] was < 70%, the activity at 10 µM [1] was 110 to 129% and the activity [1, 5] was ~120%. For the same molecule, the “Cexp (coefficient of exposure)” value ([3]; male, Wistar) was 2.6, the “plasma exposure compared with 20E” value [3] was “better plasma exposure” and the AUC (in vivo) was 202 ng·h/mL. The Cmax (in vivo) was 40 ng/mL and the Tmax (in vivo) was 15 min.
With `C=CCCO/N=C(/C)[C@H]1CC[C@@]2(O)C3=CC(=O)[C@@H]4C[C@@H](O)[C@@H](O)C[C@]4(C)C3CC[C@]12C` (stereo partly drawn) [Compound 28, (2S,3R,5R,10R,13R,14S,17S)-17-(N-but-3-enoxy-C-methylcarbonimidoyl)-2,3,14-trihydroxy-10,13-dimethyl-2,3,4,5,9,11,12,15,16,17-decahydro-1H-cyclopenta[a]phenanthren-6-one] the mrna remaining at 10 µM [4] was < 70%, the activity at 10 µM [1] was > 130% and the activity [1, 5] was 130 to 140%.
In the case of `CN(C)CCCN(C)CC(=O)[C@H]1CC[C@@]2(O)C3=CC(=O)[C@@H]4C[C@@H](O)[C@@H](O)C[C@]4(C)C3CC[C@]12C` (stereo partly drawn) [Compound 91, (2S,3R,5R,10R,13R,14S,17S)-17-[2-(3-dimethylaminopropyl(methyl)amino)acetyl]-2,3,14-trihydroxy-10,13-dimethyl-2,3,4,5,9,11,12,15,16,17-decahydro-1H-cyclopenta[a]phenanthren-6-one], the mrna remaining at 10 µM [4] is reported as 71 to 85%, the activity at 10 µM [1] is reported as 110 to 129% and the activity [1, 5] is reported as ~120%.
For `C/C(=N/OCCN1CCOCC1)[C@H]1CC[C@@]2(O)C3=CC(=O)[C@@H]4C[C@@H](O)[C@@H](O)C[C@]4(C)C3CC[C@]12C` (stereo partly drawn) [Compound 31, (2S,3R,5R,10R,13R,14S,17S)-2,3,14-trihydroxy-10,13-dimethyl-17-(C-methyl-N-(2-morpholinoethoxy)carbonimidoyl)-2,3,4,5,9,11,12,15,16,17-decahydro-1H-cyclopenta[a]phenanthren-6-one], the mrna remaining at 10 µM [4] was < 70%, the “Cexp (coefficient of exposure)” value ([3]; male, Wistar) was 3.7 and the “plasma exposure compared with 20E” value [3] was “better plasma exposure”. For the same molecule, the AUC (in vivo) was 281 ng·h/mL, the Cmax (in vivo) was 105 ng/mL and the Tmax (in vivo) was 15 min.
